Assays:
Experiment in all cases: LC/MS/MS identification of proteins from mouse liver extracts labeled with MTS-I-49
Type in all cases: biochemical
[1] = system: fructose-bisphosphate aldolase
Source text: (§1) (1991) Irreversible inhibition of serine proteases by peptide derivatives of (alpha-aminoalkyl)phosphonate diphenyl esters. Biochemistry 30, 485-493). However, it has not been used for any proteomic applications. We used MTS-I-49 to label mouse liver extracts and analyze the labeled sample by both SDS-PAGE (FIG. 5B) and by direct chemical cleavage or on bead digestion.
(§2) After enrichment on immobilized avidin, each of the three labeled proteomes (FIG. 5b) was divided into two aliquots. One was prepared for LC-MS/MS analysis by “on bead” digestion, while the other was chemically eluted and digested “in solution.” Proteins identified in each tissue lysate are listed with their accession number and theoretical molecular weight (MW). To compare both approaches, the number of identified peptides and percentage of amino acid sequence coverage is listed for each protein.
(§3) Proteins in the above Table were identified by LC/MS/MS analysis of on bead digested or chemically eluted proteins from mouse liver extracts labeled with MTS-I-49. […] BLAST database searching identified it as liver carboxylesterase 4. A number of additional endogenously biotinylated proteins were identified in the on-bead digested sample.

[2] = molecular target: T1, betaine-homocysteine methyltransferase (Mus musculus, UniProt O35490)
T1 construct: from tissue; host or cells: mouse liver extract
T1 sequence (O35490 1-407): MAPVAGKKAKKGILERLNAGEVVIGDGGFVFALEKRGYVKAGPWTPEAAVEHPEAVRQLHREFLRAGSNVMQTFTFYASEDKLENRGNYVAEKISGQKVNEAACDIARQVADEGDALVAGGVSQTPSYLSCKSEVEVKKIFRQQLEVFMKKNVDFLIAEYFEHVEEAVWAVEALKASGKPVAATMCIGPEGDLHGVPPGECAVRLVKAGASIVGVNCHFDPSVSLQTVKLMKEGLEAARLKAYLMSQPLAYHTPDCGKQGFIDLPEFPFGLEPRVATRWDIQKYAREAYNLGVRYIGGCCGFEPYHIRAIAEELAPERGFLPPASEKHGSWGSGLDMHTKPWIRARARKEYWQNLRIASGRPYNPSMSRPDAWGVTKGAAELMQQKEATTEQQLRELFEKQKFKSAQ
Source text: as §1, §2, §3

[3] = molecular target: T2, acetyl-Coenzyme acyltransferase 2 (Mus musculus, UniProt Q8BWT1)
T2 construct: from tissue; host or cells: mouse liver extract
T2 sequence (Q8BWT1 1-397): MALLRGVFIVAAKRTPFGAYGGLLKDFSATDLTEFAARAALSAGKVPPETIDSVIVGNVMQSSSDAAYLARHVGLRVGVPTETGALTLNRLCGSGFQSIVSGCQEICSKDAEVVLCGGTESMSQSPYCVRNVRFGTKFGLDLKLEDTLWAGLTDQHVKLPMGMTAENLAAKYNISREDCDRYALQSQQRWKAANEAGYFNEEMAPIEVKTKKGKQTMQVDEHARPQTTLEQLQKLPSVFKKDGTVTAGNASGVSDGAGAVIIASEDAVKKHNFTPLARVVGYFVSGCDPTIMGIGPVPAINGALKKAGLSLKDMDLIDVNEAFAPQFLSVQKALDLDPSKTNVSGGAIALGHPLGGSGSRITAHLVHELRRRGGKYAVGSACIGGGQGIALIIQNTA
Source text: as §1, §2, §3

[4] = molecular target: T3, glyceraldehyde-3-phosphate dehydrogenase (Mus musculus, UniProt P16858)
T3 construct: from tissue; host or cells: mouse liver extract
T3 sequence (P16858 whole entry): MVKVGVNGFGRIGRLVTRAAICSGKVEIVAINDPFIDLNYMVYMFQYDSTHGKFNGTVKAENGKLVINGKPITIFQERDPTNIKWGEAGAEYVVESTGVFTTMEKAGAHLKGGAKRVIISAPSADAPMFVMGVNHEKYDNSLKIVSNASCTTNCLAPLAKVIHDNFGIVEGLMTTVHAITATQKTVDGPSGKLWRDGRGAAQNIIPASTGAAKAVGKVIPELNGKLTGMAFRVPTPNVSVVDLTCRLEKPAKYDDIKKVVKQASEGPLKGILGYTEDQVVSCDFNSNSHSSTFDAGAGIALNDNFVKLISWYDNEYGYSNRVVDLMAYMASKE
Source text: as §1, §2, §3

carbonmonoxy hemoglobin = system: carbonmonoxy hemoglobin
Source text: as §1, §2, §3

[5] = molecular target: T4, propionyl-Coenzyme A carboxylase (Mus musculus, UniProt Q91ZA3)
T4 construct: from tissue; host or cells: mouse liver extract
T4 sequence (Q91ZA3 49-724): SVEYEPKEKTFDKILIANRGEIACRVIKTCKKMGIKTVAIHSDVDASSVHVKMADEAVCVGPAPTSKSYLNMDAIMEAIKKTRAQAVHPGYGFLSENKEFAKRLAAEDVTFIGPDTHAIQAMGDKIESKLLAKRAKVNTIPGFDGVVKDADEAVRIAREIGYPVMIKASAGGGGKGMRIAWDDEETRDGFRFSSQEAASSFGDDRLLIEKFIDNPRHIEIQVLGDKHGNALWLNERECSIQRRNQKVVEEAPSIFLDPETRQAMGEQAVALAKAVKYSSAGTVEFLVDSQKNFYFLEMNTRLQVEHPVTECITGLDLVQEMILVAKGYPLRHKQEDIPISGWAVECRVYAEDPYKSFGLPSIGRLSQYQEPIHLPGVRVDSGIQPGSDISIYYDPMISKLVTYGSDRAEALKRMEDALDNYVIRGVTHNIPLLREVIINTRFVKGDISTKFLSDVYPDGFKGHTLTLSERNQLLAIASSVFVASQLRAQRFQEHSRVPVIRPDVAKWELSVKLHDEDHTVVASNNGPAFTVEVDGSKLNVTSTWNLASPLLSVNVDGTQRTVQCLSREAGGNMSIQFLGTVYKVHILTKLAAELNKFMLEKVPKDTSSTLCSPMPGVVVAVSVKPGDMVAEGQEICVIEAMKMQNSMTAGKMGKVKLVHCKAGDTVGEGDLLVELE
T4 sequence (Q99MN9 29-541 partner): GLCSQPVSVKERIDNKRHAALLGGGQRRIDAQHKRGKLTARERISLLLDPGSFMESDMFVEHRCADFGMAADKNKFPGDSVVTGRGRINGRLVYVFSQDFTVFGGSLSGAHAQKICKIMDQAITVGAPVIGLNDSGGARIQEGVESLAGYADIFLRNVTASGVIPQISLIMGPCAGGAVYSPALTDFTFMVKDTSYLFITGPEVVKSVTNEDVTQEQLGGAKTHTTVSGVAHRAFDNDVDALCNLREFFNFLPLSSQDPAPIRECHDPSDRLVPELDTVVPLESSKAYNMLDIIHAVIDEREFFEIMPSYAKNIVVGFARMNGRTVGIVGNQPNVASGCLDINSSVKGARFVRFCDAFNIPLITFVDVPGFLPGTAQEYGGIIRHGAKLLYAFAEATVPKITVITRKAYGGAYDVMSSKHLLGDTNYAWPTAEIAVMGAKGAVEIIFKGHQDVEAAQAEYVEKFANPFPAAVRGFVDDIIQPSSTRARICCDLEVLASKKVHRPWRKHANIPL
Source text: as §1, §2, §3

albumin 1 = molecular target: T5, albumin 1 (Mus musculus, UniProt P07724)
T5 construct: from tissue; host or cells: mouse liver extract
T5 sequence (P07724 25-608): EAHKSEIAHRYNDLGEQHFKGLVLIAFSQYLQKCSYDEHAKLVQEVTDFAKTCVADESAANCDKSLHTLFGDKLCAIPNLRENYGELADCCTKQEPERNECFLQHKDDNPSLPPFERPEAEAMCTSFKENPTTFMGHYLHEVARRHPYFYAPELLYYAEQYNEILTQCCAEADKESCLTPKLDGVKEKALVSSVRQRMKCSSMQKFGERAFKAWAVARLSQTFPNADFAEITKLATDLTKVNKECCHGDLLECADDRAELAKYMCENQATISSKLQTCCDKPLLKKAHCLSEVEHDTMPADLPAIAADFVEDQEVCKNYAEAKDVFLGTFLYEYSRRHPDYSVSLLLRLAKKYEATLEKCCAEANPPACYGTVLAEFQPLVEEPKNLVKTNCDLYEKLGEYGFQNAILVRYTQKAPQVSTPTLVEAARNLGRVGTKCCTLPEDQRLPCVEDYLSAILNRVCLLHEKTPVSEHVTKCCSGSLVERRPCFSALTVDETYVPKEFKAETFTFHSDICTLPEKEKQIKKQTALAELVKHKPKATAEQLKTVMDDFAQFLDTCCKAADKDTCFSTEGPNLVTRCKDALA
Source text: as §1, §2, §3

[6] = chemically eluted, digested in solution

## C[C@H](NC(=O)c1ccc(N=Nc2cc(CCNC(=O)CCCC[C@@H]3SC[C@@H]4NC(=O)N[C@@H]43)ccc2O)cc1)C(=O)N[C@@H](C)C(=O)NC(Cc1ccccc1)P(=O)(Oc1ccccc1)Oc1ccccc1 (some centres unmarked) [MTS-I-49]
[1]; [6]
  Chemical Cleavage, number of identified peptides: 0
[1]; on bead digestion
  On Bead Digestion, amino acid sequence coverage: 6%
  On Bead Digestion, number of identified peptides: 2
[2]; [6]
  Chemical Cleavage, number of identified peptides: 0
[2]; on bead digestion
  On Bead Digestion, amino acid sequence coverage: 19%
  On Bead Digestion, number of identified peptides: 4
[3]; [6]
  Chemical Cleavage, amino acid sequence coverage: 15%
  Chemical Cleavage, number of identified peptides: 2
[3]; on bead digestion
  On Bead Digestion, amino acid sequence coverage: 26%
  On Bead Digestion, number of identified peptides: 5
[4]; [6]
  Chemical Cleavage, number of identified peptides: 0
[4]; on bead digestion
  On Bead Digestion, amino acid sequence coverage: 10%
  On Bead Digestion, number of identified peptides: 2
Carbonmonoxy hemoglobin; [6]
  Chemical Cleavage, number of identified peptides: 0
Carbonmonoxy hemoglobin; on bead digestion
  On Bead Digestion, amino acid sequence coverage: 68%
  On Bead Digestion, number of identified peptides: 7
[5]; [6]
  Chemical Cleavage, amino acid sequence coverage: 8%
  Chemical Cleavage, number of identified peptides: 3
[5]; on bead digestion
  On Bead Digestion, amino acid sequence coverage: 45%
  On Bead Digestion, number of identified peptides: 22
Albumin 1; [6]
  Chemical Cleavage, number of identified peptides: 0
Albumin 1; on bead digestion
  On Bead Digestion, amino acid sequence coverage: 6%
  On Bead Digestion, number of identified peptides: 2
